ChEMBL document CHEMBL1201862, “PubChem BioAssay data set” (2004)
Activity calls are given as the source filed them.

Assays:
[1] = molecular target: T1, Microphthalmia-associated transcription factor (Homo sapiens, UniProt O75030); experiment: TRPM1 promoter luciferase signal decrease, dose response, MITF inhibitor project, cell-based, SK-MEL-5, cherry-picked, set 3 (AID 493073); format: functional
T1 sequence (O75030 whole entry): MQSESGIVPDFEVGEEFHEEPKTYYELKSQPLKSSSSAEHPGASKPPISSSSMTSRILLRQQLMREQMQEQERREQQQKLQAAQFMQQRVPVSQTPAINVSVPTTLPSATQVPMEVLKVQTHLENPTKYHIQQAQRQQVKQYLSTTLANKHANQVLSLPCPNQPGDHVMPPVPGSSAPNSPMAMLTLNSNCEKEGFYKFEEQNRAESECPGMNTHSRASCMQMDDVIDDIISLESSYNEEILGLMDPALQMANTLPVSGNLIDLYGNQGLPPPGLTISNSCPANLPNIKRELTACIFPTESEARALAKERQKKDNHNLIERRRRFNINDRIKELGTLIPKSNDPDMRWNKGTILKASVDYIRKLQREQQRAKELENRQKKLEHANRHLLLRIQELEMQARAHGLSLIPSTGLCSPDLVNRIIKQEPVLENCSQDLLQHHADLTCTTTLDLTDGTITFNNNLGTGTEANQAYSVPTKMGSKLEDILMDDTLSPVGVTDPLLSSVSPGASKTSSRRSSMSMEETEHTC

[2] = molecular target: T2, Zinc finger protein mex-5 (Caenorhabditis elegans, UniProt Q9XUB2); experiment: MEX-5/TCR-2 RNA interaction inhibitors, dose response, biochemical, C. elegans, fluorescence polarization (AID 1960)
T2 sequence (Q9XUB2 whole entry): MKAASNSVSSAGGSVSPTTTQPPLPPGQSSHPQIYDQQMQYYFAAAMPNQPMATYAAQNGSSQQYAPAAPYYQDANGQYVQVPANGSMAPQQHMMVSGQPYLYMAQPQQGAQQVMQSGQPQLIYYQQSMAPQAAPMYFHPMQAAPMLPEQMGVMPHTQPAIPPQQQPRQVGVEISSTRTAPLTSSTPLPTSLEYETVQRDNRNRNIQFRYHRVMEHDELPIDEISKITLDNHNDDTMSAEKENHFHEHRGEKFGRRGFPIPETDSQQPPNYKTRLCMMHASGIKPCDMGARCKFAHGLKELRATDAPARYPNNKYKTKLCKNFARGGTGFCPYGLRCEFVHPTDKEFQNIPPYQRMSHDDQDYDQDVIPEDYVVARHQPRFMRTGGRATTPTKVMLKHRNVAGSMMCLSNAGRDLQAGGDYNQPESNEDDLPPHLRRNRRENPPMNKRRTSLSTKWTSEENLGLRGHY

[3] = molecular target: T3, RNA-binding protein pos-1 (Caenorhabditis elegans, UniProt G5EF15); experiment: inhibitors of POS-1/mex-3 RNA binding, dose response, biochemical, fluorescence polarization (AID 1964);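 also: purified POS-1 fused to maltose binding protein made in E. coli; potency of compounds blocking POS-1 binding to fluorescent RNA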
T3 sequence (G5EF15 whole entry): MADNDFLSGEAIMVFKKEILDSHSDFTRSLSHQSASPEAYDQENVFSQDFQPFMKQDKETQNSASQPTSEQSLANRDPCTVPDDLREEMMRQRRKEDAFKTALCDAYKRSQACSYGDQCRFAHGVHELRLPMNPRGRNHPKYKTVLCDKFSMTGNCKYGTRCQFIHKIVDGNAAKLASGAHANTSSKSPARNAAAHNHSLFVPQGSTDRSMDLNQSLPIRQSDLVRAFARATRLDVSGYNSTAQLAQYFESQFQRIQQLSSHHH

[4] = molecular target: Heat shock protein HSP 90-alpha (Homo sapiens, UniProt P07900); format: functional, organism-based
[5] = molecular target: T4, DNA repair protein RAD52 homolog (Homo sapiens, UniProt P43351); format: functional, biochemical
T4 sequence (P43351 whole entry): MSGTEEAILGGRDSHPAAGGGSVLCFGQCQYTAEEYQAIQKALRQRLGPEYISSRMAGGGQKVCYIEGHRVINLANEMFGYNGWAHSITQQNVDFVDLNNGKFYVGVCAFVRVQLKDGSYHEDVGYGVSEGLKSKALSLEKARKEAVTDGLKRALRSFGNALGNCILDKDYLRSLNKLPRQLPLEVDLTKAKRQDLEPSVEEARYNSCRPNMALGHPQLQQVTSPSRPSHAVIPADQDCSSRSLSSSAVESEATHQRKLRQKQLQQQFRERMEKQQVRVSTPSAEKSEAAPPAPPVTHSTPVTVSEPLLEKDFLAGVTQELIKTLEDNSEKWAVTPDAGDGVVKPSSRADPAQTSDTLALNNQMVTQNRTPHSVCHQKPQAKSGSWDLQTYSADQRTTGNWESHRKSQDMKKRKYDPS

[6] = intracellular Trypanosoma cruzi inhibitors in host cells – cell-based, plate reader, cherry-pick samples, set 3, dose response (AID 651818); format: functional;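 also: compounds incubated with infected cells for about four days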
[7] = Luminescence Cell-Based Dose Retest to Confirm Inhibitors of Cancer Stem Cells. [Related pubchem assays (depositor defined):AID2717, AID2721]; format: functional; conditions: Homo sapiens
Nonstructural protein 1 = Nonstructural protein 1 (Influenza A virus, UniProt Q194T2); format: functional, Influenza A virus (A/California/07/2009(H1N1))
Chain of Nonstructural protein 1 (Q194T2 whole entry): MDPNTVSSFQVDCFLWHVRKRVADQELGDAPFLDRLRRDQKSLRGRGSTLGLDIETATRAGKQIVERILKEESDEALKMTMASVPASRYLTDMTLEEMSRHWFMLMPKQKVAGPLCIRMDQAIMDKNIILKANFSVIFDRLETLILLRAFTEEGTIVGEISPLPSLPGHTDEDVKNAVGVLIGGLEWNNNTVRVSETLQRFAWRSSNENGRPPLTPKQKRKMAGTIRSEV

INS1 = experiment: beta cell apoptosis inhibitors, cytokine rescue, dose response, luminescence, retest (AID 449756); format: functional, cell-based; conditions: Rattus norvegicus, INS1;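 also: cell death triggered by IL-1 beta plus TNF-alpha plus IFN-gamma mixture; protective hits raise ATP signal compared with cytokine alone wells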
[8] = molecular target: FAD-linked sulfhydryl oxidase ALR (Homo sapiens, UniProt P55789); experiment: inhibitors of human ALR sulfhydryl oxidase, dose response, biochemical, H2O2 detection, luminescence, cherry-pick (AID 493248)
Chain of FAD-linked sulfhydryl oxidase ALR (P55789 whole entry): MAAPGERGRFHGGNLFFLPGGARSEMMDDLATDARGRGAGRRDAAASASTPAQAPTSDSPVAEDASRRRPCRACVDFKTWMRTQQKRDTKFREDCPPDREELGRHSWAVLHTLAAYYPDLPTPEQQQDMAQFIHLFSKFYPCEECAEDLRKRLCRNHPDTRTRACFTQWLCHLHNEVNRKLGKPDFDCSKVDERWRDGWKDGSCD

P388/ADR = experiment: cells; format: functional; conditions: Mus musculus
P388 = experiment: cells; format: functional; conditions: Mus musculus
[9] = test system: Streptococcus sp. 'group A'; experiment: growth inhibition of control SK(-) GAS strain, dose response, counter-screen for streptokinase expression inhibitor project, luminescence, kanamycin, BacTiterGlo, confirmation (AID 1900); format: functional, organism-based
Streptokinase A = molecular target: T5, Streptokinase A (Streptococcus pyogenes serotype M1, UniProt P10520); experiment: S. pyogenes streptokinase expression inhibitors, potency, dose response, plasminogen activation absorbance, OD405 (AID 1914); format: functional, Streptococcus pyogenes M1 GAS;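 also: secreted streptokinase activity via plasminogen activation per viability signal from cell pellet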
T5 sequence (P10520 whole entry): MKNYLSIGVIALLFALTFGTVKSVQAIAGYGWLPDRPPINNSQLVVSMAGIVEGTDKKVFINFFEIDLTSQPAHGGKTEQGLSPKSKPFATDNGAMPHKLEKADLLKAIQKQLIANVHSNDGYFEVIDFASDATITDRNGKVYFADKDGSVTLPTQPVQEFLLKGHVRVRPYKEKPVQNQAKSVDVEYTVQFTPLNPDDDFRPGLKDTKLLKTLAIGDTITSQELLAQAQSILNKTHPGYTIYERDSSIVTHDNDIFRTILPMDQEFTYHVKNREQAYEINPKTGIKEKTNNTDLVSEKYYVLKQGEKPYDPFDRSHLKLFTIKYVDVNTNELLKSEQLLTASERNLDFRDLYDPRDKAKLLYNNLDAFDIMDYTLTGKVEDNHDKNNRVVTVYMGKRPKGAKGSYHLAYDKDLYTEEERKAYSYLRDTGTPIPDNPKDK

Streptococcus = experiment: Group A Streptococcus viability loss, dose response, counter-screen for streptokinase expression inhibitor project, luminescence, BacTiterGlo (AID 1915); format: functional, organism-based;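 also: potency for reduction of bacterial viability or growth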
[10] = molecular target: T6, Rac GTPase-activating protein 1 (Homo sapiens, UniProt Q9H0H5); experiment: MgcRacGAP GTPase-activating activity inhibitors, confirmation, biochemical, ADP Hunter fluorescence, primary and confirmatory (AID 624330); format: functional
T6 sequence (Q9H0H5 whole entry): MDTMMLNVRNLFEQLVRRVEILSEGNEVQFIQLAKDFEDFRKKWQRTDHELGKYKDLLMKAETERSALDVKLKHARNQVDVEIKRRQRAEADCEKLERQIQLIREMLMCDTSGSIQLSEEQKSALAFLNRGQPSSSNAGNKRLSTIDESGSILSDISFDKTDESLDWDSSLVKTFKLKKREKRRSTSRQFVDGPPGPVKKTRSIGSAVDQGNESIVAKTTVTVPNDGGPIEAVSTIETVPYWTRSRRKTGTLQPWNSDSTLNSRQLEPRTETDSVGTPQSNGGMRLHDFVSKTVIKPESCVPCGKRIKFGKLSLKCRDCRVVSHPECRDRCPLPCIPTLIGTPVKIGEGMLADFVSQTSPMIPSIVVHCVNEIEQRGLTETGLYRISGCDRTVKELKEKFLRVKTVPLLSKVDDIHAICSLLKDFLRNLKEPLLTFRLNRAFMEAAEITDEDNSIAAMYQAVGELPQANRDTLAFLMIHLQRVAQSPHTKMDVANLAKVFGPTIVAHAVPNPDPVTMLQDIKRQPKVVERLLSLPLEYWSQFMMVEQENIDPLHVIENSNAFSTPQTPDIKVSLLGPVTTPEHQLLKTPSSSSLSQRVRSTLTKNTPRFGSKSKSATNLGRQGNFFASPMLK

Large T antigen = Large T antigen (Simian virus 40, UniProt P03070); format: functional, Betapolyomavirus macacae;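 also: Confirmatory-stage PubChem screen for compounds that inhibit SV40 T antigen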
Chain of Large T antigen (P03070 whole entry): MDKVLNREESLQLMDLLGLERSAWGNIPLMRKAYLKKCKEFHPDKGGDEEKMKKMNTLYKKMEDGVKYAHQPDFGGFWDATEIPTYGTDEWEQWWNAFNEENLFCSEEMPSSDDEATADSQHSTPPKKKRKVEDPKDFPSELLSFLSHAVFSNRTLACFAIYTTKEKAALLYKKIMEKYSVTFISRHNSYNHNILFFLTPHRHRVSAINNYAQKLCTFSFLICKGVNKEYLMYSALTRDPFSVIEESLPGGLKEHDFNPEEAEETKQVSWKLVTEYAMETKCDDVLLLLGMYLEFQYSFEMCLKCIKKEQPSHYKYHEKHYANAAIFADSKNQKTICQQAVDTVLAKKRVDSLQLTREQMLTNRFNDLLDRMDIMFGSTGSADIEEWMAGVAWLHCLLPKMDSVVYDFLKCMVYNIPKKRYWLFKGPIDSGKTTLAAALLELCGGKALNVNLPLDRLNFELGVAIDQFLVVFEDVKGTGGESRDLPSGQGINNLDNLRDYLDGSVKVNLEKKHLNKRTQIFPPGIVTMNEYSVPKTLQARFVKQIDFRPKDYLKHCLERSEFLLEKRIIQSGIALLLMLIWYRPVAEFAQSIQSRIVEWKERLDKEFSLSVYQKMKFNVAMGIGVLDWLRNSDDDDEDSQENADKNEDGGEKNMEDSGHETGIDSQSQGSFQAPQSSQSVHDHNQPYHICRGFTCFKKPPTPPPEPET

[11] = cytotoxicity toward NIH3T3 fibroblasts, dose response, counter-screen, cell-based, ATP luminescence, mouse fibroblasts (AID 2010); format: functional;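 also: cells exposed to compound for about 90 hours before reading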
[12] = inhibitors of intracellular T. cruzi replication, confirmation, NIH3T3 host cells, beta-gal luminescence (AID 2044); format: functional, cell-based;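 also: intracellular parasites grown in NIH/3T3 mouse fibroblasts as host cells; luminescent beta-galactosidase reporter signal from transgenic T. cruzi replicating inside host cells; inhibitors lower the luminescence signal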

COc1cccc(C(=O)Nc2ccc3c(cc2=O)[C@@H](NC(C)=O)CCc2cc(OC)c(OC)c(OC)c2-3)c1
AC50 [1]: 8.43 µM (active)

COc1ccc(C2=CC3=C(Br)C(=O)C(C)(OC(=O)c4ccco4)C(=O)C3=CO2)cc1 (stereo not drawn)
EC50 [2]: 35.9 µM (active)
EC50 [3]: > 300 µM (not active)
AC50 [4]: 4.13 µM (active)

COc1cc2nc(O)c(C(=O)NCCCN3CCOCC3)c(O)c2cc1OC
AC50 [5]: 15 µM (active)

C[C@H](CO)N1C[C@H](C)[C@@H](CN(C)C(=O)Nc2ccc(C(F)(F)F)cc2)Oc2c(NC(=O)Nc3ccc(C(F)(F)F)cc3)cccc2C1=O
AC50 [6]: 7.68 µM (active)
AC50 [7]: 3.73 µM (active)

CCCCCCOc1ccc(N2C(=O)CC(N3CCC(C(=O)OCC)CC3)C2=O)cc1 (stereo not drawn)
AC50 [4]: 2.3 µM (active)

CC(C)COC(=O)c1ccc2c(c1O)C(=O)c1ccccc1C2=O
IC50 (Nonstructural protein 1): 34.6 µM (active)
AC50 (INS1): 10.9 µM (active)

O=C(c1ccc2c(c1)OCO2)N1CCN(c2ccccc2)CC1
AC50 [8]: 13.9 µM (active)

COc1ccc(C)cc1NC(=O)c1cc2c(CO)cnc(C)c2oc1=N
AC50 [8]: 7.55 µM (active)

COc1ccc(C(=O)COC(=O)CN2CC(=O)Oc3ccccc32)cc1Br
IC50 (Nonstructural protein 1): 4.25 µM (active)

CC(C)c1ccc2c(c1)C(=O)NC(C)(C)C2
AC50 [8]: 3.3 µM (active)

Cc1cc(C(=O)Nc2nnc(C3CCCCC3)s2)no1
AC50 [8]: 5.82 µM (active)

CC1CCN(C(CC(=O)c2ccccc2)C(=O)c2ccccc2)CC1 (stereo not drawn)
AC50 [4]: 7.7 µM (active)

COc1ccc(-n2nc(C)cc2Nc2ccccc2C(=O)O)cc1
AC50 [8]: 3.72 µM (active)

CN(C)CCN1CCN(c2cc(-c3cccc(Cl)c3)nc3ccnn23)CC1
AC50 [5]: 6.97 µM (active)

CCOc1ccc(C(C)=O)cc1Cn1ccsc1=N
AC50 [5]: 4.87 µM (active)

COC(=O)C12OCC34C(CC5C(C)=CC(=O)C(O)C5(C)C3C(O)C1O)OC(=O)C(OC(=O)CC(C)C)C24 (stereo not drawn)
GI50 (P388/ADR): 0.0216 µM (active)
GI50 (P388): 0.00154 µM (active)

O=C1c2cccc3cc4ccccc4c(c23)C(=O)N1CCNCCNCCNCCN1C(=O)c2cccc3cc4ccccc4c(c23)C1=O
GI50 (P388/ADR): < 0.0187 µM (active)
GI50 (P388): < 0.0146 µM (active)

C[C@H]1CN([C@@H](C)CO)C(=O)c2cccc(NC(=O)Nc3ccc4c(c3)OCO4)c2O[C@@H]1CN(C)Cc1ccc(C(=O)Nc2ccccc2N)cc1
AC50 [6]: 2.18 µM (active)

C[C@H](CO)N1C[C@H](C)[C@@H](CN(C)S(=O)(=O)c2cn(C)cn2)Oc2c(cccc2N(C)C)C1=O
AC50 [6]: 15.8 µM (active)

C[C@H]1CN([C@@H](C)CO)C(=O)Cc2cc(NC(=O)NC3CCCCC3)ccc2O[C@H]1CN(C)Cc1ccc(C(=O)Nc2ccccc2N)cc1
AC50 [6]: 2.97 µM (active)

C[C@@H]1CN([C@H](C)CO)C(=O)Cc2cc(NS(=O)(=O)c3ccc(F)cc3)ccc2O[C@@H]1CN(C)S(=O)(=O)c1ccc(Cl)cc1
AC50 [6]: 2.31 µM (active)

CN(C)CCCNC(=O)c1ccc(-c2cc3nc(NCc4cccnc4)n(C)c(=O)c3s2)cc1
AC50 [5]: 13.3 µM (active)

Cc1ccc(N/N=C(\C#N)C(=N)S)c(C)c1
EC50 [9]: 32.6 µM (active)
EC50 (Streptokinase A): > 150 µM (not active)
AC50 [4]: 1.84 µM (active)
EC50 (Streptococcus): 20.8 µM (active)

O=C(Cc1ccccc1)NCC(=O)N/N=C/c1ccc([N+](=O)[O-])s1
AC50 [1]: 16.1 µM (active)

COc1cc(/C=N/NS(=O)(=O)c2ccc(C)c([N+](=O)[O-])c2)ccc1O
IC50 [10]: 40.9 µM (active)
AC50 [8]: 0.181 µM (active)
IC50 (Large T antigen): 7.27 µM (active)

Cc1nn(-c2ccccc2)c2sc(-c3nnc(S)o3)cc12
EC50 [9]: 4.28 µM (active)
AC50 [8]: 2.63 µM (active)
EC50 (Streptokinase A): > 150 µM (not active)
EC50 (Streptococcus): 99 µM (active)

CC(C)(C)C(O)C(Oc1ccc(Cl)cc1)n1cncn1 (stereo not drawn) [TRIADIMENOL]
EC50 [11]: > 60 µM (not active)
EC50 [12]: 1.51 µM (active)
AC50 [4]: 0.29 µM (active)
